Consider 1 compound from US20010025053A1, “Use of nitric oxid synthase inhibitors for the treatment of diabetes” (Smith Kline Beecham p.l.c., priority 1997, published 2001).

Each structure is given as a SMILES string.

This experiment deals with obese db/db mouse. The experiment is described as follows: obese db/db mouse model of type 2 non-insulin dependent diabetes. The format is in vivo. Particulars: obese db/db mice. An excerpt: The obese db/db mouse is a genetic model of type 2 non-insulin dependent diabetes which is both insulin resistant and hyperglycaemic. Male animals were obtained at 6 weeks of age. Blood samples were taken by tail tip snip for measurement of pre-treatment blood glucose. Animals were allocated into treated and control groups such that the mean and standard deviation of the fasting blood glucose concentrations of each group was similar.
On day 0 of the study a group of obese animals and their lean litter mates were killed for measurement of baseline biochemistry and histology. In addition one group of animals (control; n=14) were fed a standard diet and a further group received aminoguanidine (500 mg/kg; n=14) in the same diet. Animals were allowed free access to food and water and their intake measured daily. At weekly intervals 24 hr urine output was also measured. Mice (n=7) were killed at 30 days and 85 days from commencement of treatment. Blood was taken for measurement of glucose and insulin concentrations and the pancreas removed for histological analysis and for measurement of pancreatic insulin.

The mark [1] stands for this setting: from day 63 compared to day 7, FIG. 1.

Consider `N=C(N)NN` [Aminoguanidine, Hydrazinecarboximidamide], for which the islet morphology result (day 30 of treatment, histology) is reported as “normal islet morphology was preserved”. Besides, under “day 30 of treatment, vs untreated controls”, the islet insulin content result was “greater”. Also, the urinary glucose excretion result (from day 35, vs untreated, FIG. 1) is “lower”. Under setting [1], the “increase in urine output (polyuria)” value is reported as “prevented” and the “increase in water intake (polydipsia)” value is listed as “prevented”. The “pancreatic insulin content relative to untreated animals” value (treated vs untreated) is reported as “twice that of the untreated animals”.
